Holding throughout (conditions): LAPC4, 24 h
For assay [1], the system named is LAPC4. As to the kind of experiment: Inhibition of 3-alpha-diol conversion to 5-alpha-dihydrotestosterone in human LAPC4 cells assessed in 200000 cells at 3 uM measured after 24 hrs using [14C]-3-alpha-diol/[14C]-3-beta-diol (9:1) as non-radiolabeled/radiolabeled 20:1 mixture by TLC analysis relative to control. The class given is functional.
Assay [2] deals with LAPC4. As to the kind of experiment: Inhibition of 3-alpha-diol conversion to 5-alpha-dihydrotestosterone in human LAPC4 cells assessed in 200000 cells measured after 24 hrs using [14C]-3-alpha-diol/[14C]-3-beta-diol (9:1) as non-radiolabeled/radiolabeled 20:1 mixture by TLC analysis. The class given is functional, cell-based.
In assay [3] the test system is LAPC4. The assay is described as follows: Inhibition of 3-alpha-diol conversion to 5-alpha-dihydrotestosterone in human LAPC4 cells assessed in 200000 cells at 10 uM measured after 24 hrs using [14C]-3-alpha-diol/[14C]-3-beta-diol (9:1) as non-radiolabeled/radiolabeled 20:1 mixture by TLC analysis relative to control. In kind it is functional.
For assay [4], the system named is LAPC4. The assay is described as follows: Inhibition of 3-alpha-diol conversion to 5-alpha-dihydrotestosterone in human LAPC4 cells assessed in 100000 cells at 10 uM measured after 24 hrs using [14C]-3-alpha-diol/[14C]-3-beta-diol (9:1) as non-radiolabeled/radiolabeled 20:1 mixture by TLC analysis relative to control. In kind it is functional.
In assay [5] the test system is LAPC4. As to the kind of experiment: Inhibition of 3-alpha-diol conversion to 5-alpha-dihydrotestosterone in human LAPC4 cells assessed in 100000 cells at 3 uM measured after 24 hrs using [14C]-3-alpha-diol/[14C]-3-beta-diol (9:1) as non-radiolabeled/radiolabeled 20:1 mixture by TLC analysis relative to control. In kind it is functional.

Molecules are shown by their SMILES.

Consider `COc1cc(CN2CCN(C[C@@]3(O)CC[C@@]4(C)[C@@H](CC[C@@H]5[C@@H]4CC[C@]4(C)C(=O)CC[C@@H]54)C3)CC2)cc(C(F)(F)F)c1`, for which the inhibition at 3 µM in assay [1] worked out at 46.8%. In assay [2], the IC50 was found to be 3.7 µM. The inhibition at 10 µM in assay [3] amounted to 62.9%.
Consider `C#C[C@]1(O)CC[C@H]2[C@@H]3CC[C@H]4C[C@@](O)(CN5CCN(Cc6cccc(OC)c6C(F)(F)F)CC5)CC[C@]4(C)[C@H]3CC[C@@]21C`, for which, in assay [1], the inhibition at 3 µM was 44.3%. Further, in assay [2], the IC50 was determined as 14.1 µM. Besides, the inhibition at 10 µM in assay [3] was found to be 56.2%.
The matching figures for `C#C[C@]1(O)CC[C@H]2[C@@H]3CC[C@H]4C[C@@](O)(CN5CCN(Cc6ccc(C(F)(F)F)c(OC)c6)CC5)CC[C@]4(C)[C@H]3CC[C@@]21C`: 74%, 1.2 µM and 88.8%.
In the case of `COc1cccc(CN2CCN(C[C@@]3(O)CC[C@@]4(C)[C@@H](CC[C@@H]5[C@@H]4CC[C@]4(C)C(=O)C(C)(C)C[C@@H]54)C3)CC2)c1`, the inhibition at 10 µM in assay [4] stood at 21.5%. The inhibition at 3 µM in assay [5] is 11.8%.
The matching figures for `COc1cccc(CN2CCN(C[C@@]3(O)CC[C@@]4(C)[C@@H](CC[C@@H]5[C@@H]4CC[C@]4(C)[C@@H](O)CC[C@@H]54)C3)CC2)c1`: 28.3% and 21.2%.
For `COc1cccc(CN2CCN(C[C@@]3(O)CC[C@@]4(C)[C@@H](CC[C@@H]5[C@@H]4CC[C@]4(C)[C@H](O)CC[C@@H]54)C3)CC2)c1` the same measures were 27.6% and 9.5%.
In the case of `C[C@]12CC[C@@H](O)C[C@@H]1CC[C@@H]1[C@@H]2CC[C@]2(C)C(=O)CC[C@@H]12` [ANDROSTERONE], the inhibition at 3 µM in assay [1] was 85.7%. Further, the inhibition at 10 µM in assay [3] was 83.8%.
Take `CC(=O)c1cccc(CN2CCN(C[C@@]3(O)CC[C@@]4(C)[C@@H](CC[C@@H]5[C@@H]4CC[C@]4(C)C(=O)CC[C@@H]54)C3)CC2)c1`: the inhibition at 10 µM in assay [4] is 15.5%. Further, the inhibition at 3 µM in assay [5] was determined as 3.7%.
Turning to `COc1cc(N2CCN(C[C@@]3(O)CC[C@@]4(C)[C@@H](CC[C@@H]5[C@@H]4CC[C@]4(C)C(=O)CC[C@@H]54)C3)CC2)ccc1C(F)(F)F`, the inhibition at 3 µM in assay [1] came out at 37.4%; in assay [5], 33.7%. The inhibition at 10 µM in assay [4] was 55.6%; in assay [3], 63.2%.
Consider `COc1cc(CN2CCN(C[C@@]3(O)CC[C@@]4(C)[C@@H](CC[C@@H]5[C@@H]4CC[C@]4(C)C(=O)CC[C@@H]54)C3)CC2)ccc1C(F)(F)F`, for which the half-inhibitory concentration (IC50) in assay [2] was 8 µM.
Take `C[C@]12CC[C@](O)(CN3CCN(Cc4ccc5ccccc5c4)CC3)C[C@@H]1CC[C@@H]1[C@@H]2CC[C@]2(C)C(=O)CC[C@@H]12`: the inhibition at 3 µM in assay [1] worked out at 30.1%. The inhibition at 10 µM in assay [3] stood at 51.4%.
For `C[C@]12CC[C@](O)(CN3CCN(C(=S)NCc4cccc(C(F)(F)F)c4)CC3)C[C@@H]1CC[C@@H]1[C@@H]2CC[C@]2(C)C(=O)CC[C@@H]12`, the inhibition at 3 µM in assay [1] came out at 47.7%; in assay [5] it was 27%. In addition, the inhibition at 10 µM is 49.7% in assay [4] and 57.7% in assay [3]. The IC50 in assay [2] turned out to be 3.6 µM.
As to `COc1cc(N2CCN(C[C@@]3(O)CC[C@@]4(C)[C@@H](CC[C@@H]5[C@@H]4CC[C@]4(C)C(=O)CC[C@@H]54)C3)CC2)ccc1F`, in assay [1], the inhibition at 3 µM turned out to be 21.4%. In assay [3], the inhibition at 10 µM is 37.2%.
Turning to `COc1cccc(CN2CCN(C[C@@]3(O)CC[C@@]4(C)[C@@H](CC[C@@H]5[C@@H]4CC[C@]4(C)C(=O)CC[C@@H]54)C3)CC2)c1`, the inhibition at 10 µM in assay [4] turned out to be 42.5%. Moreover, the inhibition at 3 µM in assay [5] stood at 21.5%.
Turning to `C[C@]12CCC(O)C[C@@H]1CC[C@@H]1[C@@H]2CC[C@]2(C)[C@@H](O)CC[C@@H]12` (stereo not given in full), the results for the inhibition at 3 µM in assay [1] and in assay [5] were 73.6% and 46.9%, respectively. Further, the inhibition at 10 µM in assay [4] is 79.3%; in assay [3], 87%. Moreover, in assay [2], the concentration for half-maximal inhibition (IC50) was found to be 0.56 µM.
For the compound `CCN(C)S(=O)(=O)N1CCN(C[C@@]2(O)CC[C@@]3(C)[C@@H](CC[C@@H]4[C@@H]3CC[C@]3(C)C(=O)CC[C@@H]43)C2)CC1`, the inhibition at 10 µM in assay [4] came to 3.3%. Also, the inhibition at 3 µM in assay [5] was determined as 0%.
As for `C[C@]12CC[C@](O)(CN3CCN(C(=S)Nc4ccc5ccccc5c4)CC3)C[C@@H]1CC[C@@H]1[C@@H]2CC[C@]2(C)C(=O)CC[C@@H]12`, the inhibition at 3 µM in assay [1] is 41.1%. In addition, in assay [3], the inhibition at 10 µM is 42.1%.
The matching figures for `COc1ccc(C(F)(F)F)c(N2CCN(C[C@@]3(O)CC[C@@]4(C)[C@@H](CC[C@@H]5[C@@H]4CC[C@]4(C)C(=O)CC[C@@H]54)C3)CC2)c1`: 27.6% and 48%.
In the case of `C[C@]12CC[C@](O)(CN3CCN(Cc4ccc5ccccc5n4)CC3)C[C@@H]1CC[C@@H]1[C@@H]2CC[C@]2(C)C(=O)CC[C@@H]12`, in assay [4], the inhibition at 10 µM was 27.4%. Further, the inhibition at 3 µM in assay [5] worked out at 8.4%.
The matching figures for `COc1cc(C)ccc1CN1CCN(C[C@@]2(O)CC[C@@]3(C)[C@@H](CC[C@@H]4[C@@H]3CC[C@]3(C)C(=O)CC[C@@H]43)C2)CC1`: 51.2% and 12.2%.
Take `C[C@]12CC[C@](O)(CN3CCN(C(=O)c4ccc5ccccc5c4)CC3)C[C@@H]1CC[C@@H]1[C@@H]2CC[C@]2(C)C(=O)CC[C@@H]12`: in assay [1], the inhibition at 3 µM turned out to be 43.6%. Moreover, the IC50 in assay [2] is 6.1 µM. Also, the inhibition at 10 µM in assay [3] turned out to be 65.3%.
For `COc1cc(CN2CCN(C[C@@]3(O)CC[C@@]4(C)[C@@H](CC[C@@H]5[C@@H]4CC[C@]4(C)C(=O)CC[C@@H]54)C3)CC2)ccc1C`, the inhibition at 10 µM in assay [4] stood at 49%. Also, the inhibition at 3 µM in assay [5] turned out to be 22.3%.
For `COc1cccc(CN2CCN(C[C@@]3(O)CC[C@@]4(C)[C@@H](CC[C@@H]5[C@@H]4CC[C@@]4(C)[C@H]5CC[C@]4(C)O)C3)CC2)c1`, the inhibition at 10 µM in assay [4] was determined as 36.5%. In addition, in assay [5], the inhibition at 3 µM was found to be 17.8%.
Turning to `C[C@]12CC[C@](O)(CN3CCN(S(=O)(=O)c4ccc5ccccc5c4)CC3)C[C@@H]1CC[C@@H]1[C@@H]2CC[C@]2(C)C(=O)CC[C@@H]12`, the inhibition at 3 µM in assay [1] was found to be 0.1%. For the same compound, the inhibition at 10 µM in assay [3] worked out at 19.1%.
`COc1cccc(CN2CCN(C[C@@]3(O)CC[C@@]4(C)[C@@H](CC[C@@H]5[C@@H]4CC[C@@]4(C)[C@H]5CCC4(F)F)C3)CC2)c1`: the inhibition at 10 µM in assay [4] came to 49.7%. Moreover, the inhibition at 3 µM in assay [5] was found to be 33.7%.
The matching figures for `CN(C)S(=O)(=O)c1ccc(NC(=S)N2CCN(C[C@@]3(O)CC[C@@]4(C)[C@@H](CC[C@@H]5[C@@H]4CC[C@]4(C)C(=O)CC[C@@H]54)C3)CC2)cc1`: 31.7% and 14.3%.
For `C#C[C@]1(O)CC[C@H]2[C@@H]3CC[C@H]4C[C@@](O)(CN5CCN(Cc6cccc(OC)c6)CC5)CC[C@]4(C)[C@H]3CC[C@@]21C` the same measures were 44.2% and 35.4%.
